Experimental data taken from patent publication US7365082B2, “N-(substituted arylmethyl)-4-(disubstituted methyl)piperidines and piperazines” (Bayer CropScience AG, priority 2002, dated 2008).

System: tobacco budworm (Heliothis virescens [Fabricius])
Experiment: surface-treated diet test against tobacco budworm
Assay type: in vivo
Settings: 0.25 millimoles of candidate insecticide on the surface of the diet, second instar larvae, five-day exposure; for Percent Mortality: compared to the total number of insects infested; for Percent Growth Inhibition: inhibition of insect weight relative to untreated controls
Experimental: Candidate insecticides were evaluated for activity against the tobacco budworm (Heliothis virescens [Fabricius]) in a surface-treated diet test.
In this test one mL of molten (65-70° C.) wheat germ-based artificial diet was pipetted into each well of a four by six (24 well) multi-well plate (ID# 430345-15.5 mm dia.×17.6 mm deep; Corning Costar Corp., One Alewife Center, Cambridge, Mass. 02140). The diet was allowed to cool to ambient temperature before treatment with candidate insecticide.
For a determination of insecticidal activity, solutions of the candidate insecticides were prepared for testing using a Packard 204DT Multiprobe® Robotic System (Packard Instrument Company, 800 Research Parkway, Meriden, Conn. 06450), in which the robot first diluted a standard 50 millimolar DMSO solution of candidate insecticide with a 1:1 water/acetone solution (V/V) in a ratio of 1:7 stock solution to water/acetone. The robot subsequently pipetted 40 microliters of the so-prepared solution onto the surface of the diet in each of three wells in the 24 multi-well plate. The process was repeated with solutions of seven other candidate insecticides. Once treated, the contents of the multi-well plate were allowed to dry, leaving 0.25 millimoles of candidate insecticide on the surface of the diet, or a concentration of 0.25 millimolar. Appropriate untreated controls containing only DMSO on the diet surface were also included in this test.
For evaluations of the insecticidal activity of a candidate insecticide at varying rates of application, the test was established as described above using sub-multiples of the standard 50 millimolar DMSO solution of candidate insecticide. For example, the standard 50 millimolar solution was diluted by the robot with DMSO to give 5, 0.5, 0.05, 0.005, 0.0005 millimolar, or more dilute solutions of the candidate insecticide. In these evaluations there were six replicates of each rate of application placed on the surface of the diet in the 24 multi-well plate, for a total of four rates of application of candidate insecticide in each plate.
In each well of the test plate was placed one second instar tobacco budworm larvea, each weighing approximately five milligrams. After the larvae were placed in each well, the plate was sealed with clear polyfilm adhesive tape. The tape over each well was perforated to ensure an adequate air supply. The plates were then held in a growth chamber at 25° C. and 60% relative humidity for five days (light 14 hours/day).
After the five-day exposure period insecticidal activity for each rate of application of candidate insecticide was assessed as percent inhibition of insect weight relative to the weight of insects from untreated controls, and percent mortality when compared to the total number of insects infested.
The test compounds of formula I are identified by numbers that correspond to those in Table 1.

Structure (SMILES): CCn1nnc(-c2ccc(CN3CCC(/C(=N\NC(=O)c4ccc(OC(F)(F)F)cc4)c4ccc(OC(F)(F)F)cc4)CC3)cc2)n1 [Compound 149, N-[1-aza-2-(1-{[4-(2-ethyl(1,2,3,4-tetraazol-5-yl))phenyl]methyl}(4-piperidyl))-2-[4-(trifluoromethoxy)phenyl]vinyl][4-(trifluoromethoxy)phenyl]carboxamide]
- Percent Mortality: 100%
- Percent Growth Inhibition: 96%

Structure (SMILES): Clc1ccc(C(c2ccc(Cl)cc2)N2CCN(Cc3ccc(Oc4ncccn4)cc3)CC2)cc1 [Compound 167]
- Percent Mortality: 100%
- Percent Growth Inhibition: 100%

Structure (SMILES): FC(F)(F)c1ccc(C(c2ccc(Cl)cc2)N2CCN(Cc3ccc(Oc4ncccn4)cc3)CC2)cc1 (centres unmarked) [Compound 168]
- Percent Mortality: 100%
- Percent Growth Inhibition: 100%

Structure (SMILES): FC(F)(F)c1ccc(C(c2ccc(C(F)(F)F)cc2)N2CCN(Cc3ccc(Oc4ncccn4)cc3)CC2)cc1 [Compound 169, 2-{4-[(4-{bis[4-(trifluoromethyl)phenyl]methyl}piperazinyl)methyl]phenoxy}pyrimidine]
- Percent Growth Inhibition: 100%

Structure (SMILES): [O-][N+]1(Cc2ccc(Oc3ccccc3F)cc2)CCN(C(c2ccc(OC(F)(F)F)cc2)c2ccc(OC(F)(F)F)cc2)CC1 [Compound 172]
- Percent Mortality: 100%
- Percent Growth Inhibition: 100%

Structure (SMILES): CC(C)OC(=O)Nc1ccc(C[N+]2([O-])CCN(C(c3ccc(C(F)(F)F)cc3)c3ccc(C(F)(F)F)cc3)CC2)cc1 [Compound 174]
- Percent Mortality: 100%
- Percent Growth Inhibition: 100%

Structure (SMILES): CCn1nnc(-c2ccc(C[N+]3([O-])CCN(C(c4ccc(C(F)(F)F)cc4)c4ccc(C(F)(F)F)cc4)CC3)cc2)n1 [Compound 175]
- Percent Mortality: 100%
- Percent Growth Inhibition: 100%

Structure (SMILES): [O-][N+]1(Cc2ccc(Oc3ccccn3)cc2)CCN(C(c2ccc(Cl)cc2)c2ccc(C(F)(F)F)cc2)CC1 (centres unmarked) [Compound 176]
- Percent Mortality: 100%
- Percent Growth Inhibition: 100%

Structure (SMILES): [O-][N+]1(Cc2ccc(Oc3ccccn3)cc2)CCN(C(c2ccc(C(F)(F)F)cc2)c2ccc(C(F)(F)F)cc2)CC1 [Compound 177]
- Percent Mortality: 100%
- Percent Growth Inhibition: 100%

Structure (SMILES): [O-][N+]1(Cc2ccc(Oc3ncccn3)cc2)CCN(C(c2ccc(Cl)cc2)c2ccc(Cl)cc2)CC1 [Compound 178]
- Percent Mortality: 0%
- Percent Growth Inhibition: 100%

Structure (SMILES): [O-][N+]1(Cc2ccc(Oc3ncccn3)cc2)CCN(C(c2ccc(Cl)cc2)c2ccc(C(F)(F)F)cc2)CC1 (centres unmarked) [Compound 179]
- Percent Mortality: 100%
- Percent Growth Inhibition: 100%

Structure (SMILES): [O-][N+]1(Cc2ccc(Oc3ncccn3)cc2)CCN(C(c2ccc(C(F)(F)F)cc2)c2ccc(C(F)(F)F)cc2)CC1 [Compound 180, 2-{4-[(4-{bis[4-(trifluoromethyl)phenyl]methyl}1-oxypiperazinyl)methyl]phenoxy}pyrimidine]
- Percent Mortality: 100%
- Percent Growth Inhibition: 100%
